From ChEMBL document CHEMBL5344443, “Manzamine-A Alters In Vitro Calvarial Osteoclast Function” (J Nat Prod, 2024)
pIC50: −log10 of the molar value. Active and inactive are the calls of the source. The calls are words filed in the database; no cut-off is given here.

Columns and labels:
Assay type in all cases: functional, cell-based
RAW264.7 [1] = test: Antiproliferative activity against mouse RAW 264.7 preosteoclast cells assessed as reduction in cell viability incubated for 24 hrs by MTS viability assay; conditions: RAW264.7, 24 h
RAW264.7 [2] = test: Antiproliferative activity against mouse RAW 264.7 preosteoclast cells assessed as reduction in cell viability incubated for 48 hrs by MTS viability assay; conditions: RAW264.7, 48 h
RAW264.7 [3] = test: Antiproliferative activity against mouse RAW 264.7 preosteoclast cells assessed as reduction in cell viability incubated for 72 hrs by MTS viability assay; conditions: RAW264.7, 72 h
RAW264.7 [4] = test: Antiproliferative activity against mouse differentiated RAW 264.7 osteoclast cells assessed as reduction in cell viability incubated for 24 hrs by MTS viability assay; conditions: RAW264.7, 24 h
RAW264.7 [5] = test: Antiproliferative activity against mouse differentiated RAW 264.7 osteoclast cells assessed as reduction in cell viability incubated for 48 hrs by MTS viability assay; conditions: RAW264.7, 48 h
RAW264.7 [6] = test: Antiproliferative activity against mouse differentiated RAW 264.7 osteoclast cells assessed as reduction in cell viability incubated for 72 hrs by MTS viability assay; conditions: RAW264.7, 72 h
RAW264.7 [7] = test: Induction of apoptosis in mouse RAW 264.7 preosteoclast cells at 2.5 uM incubated for 24 hrs by Caspase 3/7 assay
RAW264.7 [8] = test: Induction of apoptosis in mouse RAW 264.7 preosteoclast cells at 2.5 uM incubated for 72 hrs by Caspase 3/7 assay
RAW264.7 [9] = test: Induction of apoptosis in mouse differentiated RAW 264.7 osteoclast cells at 1.6 uM incubated for 24 hrs by Caspase 3/7 assay
RAW264.7 [10] = test: Induction of apoptosis in mouse differentiated RAW 264.7 osteoclast cells at 47 uM incubated for 24 hrs by Caspase 3/7 assay
RAW264.7 [11] = test: Induction of apoptosis in mouse differentiated RAW 264.7 osteoclast cells at 120 uM incubated for 24 hrs by Caspase 3/7 assay
RAW264.7 [12] = test: Induction of apoptosis in mouse differentiated RAW 264.7 osteoclast cells at 1.6 uM incubated for 48 hrs by Caspase 3/7 assay
RAW264.7 [13] = test: Induction of apoptosis in mouse differentiated RAW 264.7 osteoclast cells at 120 uM incubated for 48 hrs by Caspase 3/7 assay
RAW264.7 [14] = test: Induction of apoptosis in mouse differentiated RAW 264.7 osteoclast cells at 120 uM incubated for 72 hrs by Caspase 3/7 assay
RAW264.7 [15] = test: Induction of apoptosis in mouse differentiated RAW 264.7 osteoclast cells at 47 uM incubated for 72 hrs by Caspase 3/7 assay
RAW264.7 [16] = test: Induction of apoptosis in mouse differentiated RAW 264.7 osteoclast cells at 1.6 uM incubated for 72 hrs by Caspase 3/7 assay
RAW264.7 [17] = test: Disruption of differentiated mouse RAW 264.7 osteoclast assessed as reduction in cell density at 120 uM incubated for 72 hrs by TRAP staining
RAW264.7 [18] = test: Disruption of differentiated mouse RAW 264.7 osteoclast assessed as loss of osteoclast at 1.6 uM incubated for 24 hrs by TRAP staining
RAW264.7 [19] = test: Disruption of differentiated mouse RAW 264.7 osteoclast assessed as reduction in cell density at 1.6 uM incubated for 24 hrs by TRAP staining
RAW264.7 [20] = test: Disruption of differentiated mouse RAW 264.7 osteoclast assessed as loss of osteoclast at 1.6 uM incubated for 48 hrs by TRAP staining
RAW264.7 [21] = test: Disruption of differentiated mouse RAW 264.7 osteoclast assessed as reduction in cell density at 1.6 uM incubated for 48 hrs by TRAP staining
RAW264.7 [22] = test: Disruption of differentiated mouse RAW 264.7 osteoclast assessed as loss of osteoclast at 1.6 uM incubated for 72 hrs by TRAP staining
RAW264.7 [23] = test: Disruption of differentiated mouse RAW 264.7 osteoclast assessed as reduction in cell density at 1.6 uM incubated for 72 hrs by TRAP staining
RAW264.7 [24] = test: Disruption of differentiated mouse RAW 264.7 osteoclast assessed as loss of osteoclast at 47 uM incubated for 24 hrs by TRAP staining
RAW264.7 [25] = test: Disruption of differentiated mouse RAW 264.7 osteoclast assessed as reduction in cell density at 47 uM incubated for 24 hrs by TRAP staining
RAW264.7 [26] = test: Disruption of differentiated mouse RAW 264.7 osteoclast assessed as loss of osteoclast at 47 uM incubated for 48 hrs by TRAP staining
RAW264.7 [27] = test: Disruption of differentiated mouse RAW 264.7 osteoclast assessed as reduction in cell density at 47 uM incubated for 48 hrs by TRAP staining
RAW264.7 [28] = test: Disruption of differentiated mouse RAW 264.7 osteoclast assessed as loss of osteoclast at 47 uM incubated for 72 hrs by TRAP staining
RAW264.7 [29] = test: Disruption of differentiated mouse RAW 264.7 osteoclast assessed as reduction in cell density at 47 uM incubated for 72 hrs by TRAP staining
RAW264.7 [30] = test: Disruption of differentiated mouse RAW 264.7 osteoclast assessed as loss of osteoclast at 120 uM incubated for 24 hrs by TRAP staining
RAW264.7 [31] = test: Disruption of differentiated mouse RAW 264.7 osteoclast assessed as reduction in cell density at 120 uM incubated for 24 hrs by TRAP staining
RAW264.7 [32] = test: Disruption of differentiated mouse RAW 264.7 osteoclast assessed as loss of osteoclast at 120 uM incubated for 48 hrs by TRAP staining
RAW264.7 [33] = test: Disruption of differentiated mouse RAW 264.7 osteoclast assessed as reduction in cell density at 120 uM incubated for 48 hrs by TRAP staining
RAW264.7 [34] = test: Disruption of differentiated mouse RAW 264.7 osteoclast assessed as loss of osteoclast at 120 uM incubated for 72 hrs by TRAP staining
RAW264.7 [35] = test: Downregulation of Six1 mRNA expression in mouse RAW 264.7 preosteoclasts at 2.5 uM incubated for 24 hrs by qRT-PCR analysis
RAW264.7 [36] = test: Downregulation of Six1 mRNA expression in mouse RAW 264.7 preosteoclasts at 2.5 uM incubated for 48 hrs by qRT-PCR analysis
RAW264.7 [37] = test: Downregulation of Six1 mRNA expression in mouse differentiated RAW 264.7 osteoclasts cells at 47 uM incubated for 24 hrs by qRT-PCR analysis
RAW264.7 [38] = test: Downregulation of Six1 mRNA expression in mouse differentiated RAW 264.7 osteoclasts cells at 47 uM incubated for 48 hrs by qRT-PCR analysis
RAW264.7 [39] = test: Downregulation of Six1 mRNA expression in mouse differentiated RAW 264.7 osteoclasts cells at 120 uM incubated for 24 hrs by qRT-PCR analysis
RAW264.7 [40] = test: Downregulation of Six1 mRNA expression in mouse differentiated RAW 264.7 osteoclasts cells at 120 uM incubated for 48 hrs by qRT-PCR analysis

O[C@]12C=C(c3nccc4c3[nH]c3ccccc34)[C@@H]3CCN(CCCC/C=C\CC1)C[C@@]31C[C@@H]3/C=C\CCCCN3[C@H]12 [MANZAMINE A]
pIC50 (RAW264.7 [1]): 5.60 | pIC50 (RAW264.7 [2]): 5.66 | pIC50 (RAW264.7 [3]): 5.72 | pIC50 (RAW264.7 [4]): 5.80 | pIC50 (RAW264.7 [5]): 3.92 | pIC50 (RAW264.7 [6]): 4.33 | Activity (RAW264.7 [7]): Active | Activity (RAW264.7 [8]): inactive | Activity (RAW264.7 [9]): Active | Activity (RAW264.7 [10]): Active | Activity (RAW264.7 [11]): Active | Activity (RAW264.7 [12]): Active | Activity (RAW264.7 [13]): inactive | Activity (RAW264.7 [14]): inactive | Activity (RAW264.7 [15]): inactive | Activity (RAW264.7 [16]): inactive | Activity (RAW264.7 [17]): Active | Activity (RAW264.7 [18]): inactive | Activity (RAW264.7 [19]): inactive | Activity (RAW264.7 [20]): Active | Activity (RAW264.7 [21]): Active | Activity (RAW264.7 [22]): Active | Activity (RAW264.7 [23]): Active | Activity (RAW264.7 [24]): Active | Activity (RAW264.7 [25]): Active | Activity (RAW264.7 [26]): Active | Activity (RAW264.7 [27]): Active | Activity (RAW264.7 [28]): Active | Activity (RAW264.7 [29]): Active | Activity (RAW264.7 [30]): Active | Activity (RAW264.7 [31]): Active | Activity (RAW264.7 [32]): Active | Activity (RAW264.7 [33]): Active | Activity (RAW264.7 [34]): Active | Activity (RAW264.7 [35]): Active | Activity (RAW264.7 [36]): Active | Activity (RAW264.7 [37]): Active | Activity (RAW264.7 [38]): Active | Activity (RAW264.7 [39]): Active | Activity (RAW264.7 [40]): Active
